In publication PMC11675744, “Grape Pomace as a Source of Phenolics for the Inhibition of Starch Digestion Enzymes: A Comparative Study and Standardization of the Efficacy” (Foods, 2024):

Biological target: T1, rat intestinal α-glucosidase
T1 construct: gene Mgam; crude supernatant of rat intestinal acetone powder (Sigma N1377-5G), brush border enzymes, not purified
Assay: p-nitrophenol release, absorbance […] nm, five-point dose-response
Type: biochemical
Details: substrate p-nitrophenyl α-D-glucoside (1 mM stock, 200 µL in 1 mL), phosphate pH 6.8, 37 °C, 5 min pre-incubation; crude extract

C[C@H]1O[C@H](O[C@H]2[C@H](O)[C@@H](O)[C@@H](O[C@H]3[C@H](O)[C@@H](O)C(O)O[C@@H]3CO)O[C@@H]2CO)[C@H](O)[C@@H](O)[C@@H]1N[C@H]1C=C(CO)[C@@H](O)[C@H](O)[C@H]1O (stereo partly shown) [acarbose]
I50: 100 µg/mL
